These results are taken from ChEMBL document CHEMBL5465560, “Selectivity Literature for EUbOPEN Chemogenomic Library” (2024).

Experiment [1] has as its target Cyclin-dependent kinase 16 (Homo sapiens) (UniProt Q00536). The experiment can be described thus: Selectivity interaction (KinomeScan (DiscoverX)) EUB0001079a CDK16. Particulars: at 1 µM.
For experiment [2], the target named is Insulin receptor-related protein (Homo sapiens) (UniProt P14616). Nature of the experiment: Selectivity interaction (KinomeScan (DiscoverX)) EUB0001049a INSRR. Particulars: at 1 µM.
In experiment [3] the target is Tyrosine-protein kinase HCK (Homo sapiens) (UniProt P08631). The experiment can be described thus: Selectivity interaction (Kinase screening (Nanosyn)) EUB0000604a HCK.
Experiment [4] addresses Tyrosine-protein kinase Blk (Homo sapiens) (UniProt P51451). The experiment can be described thus: Selectivity interaction (KinomeScan (DiscoverX)) EUB0000045b BLK.
In experiment [5] the test system is Proto-oncogene tyrosine-protein kinase receptor Ret (Homo sapiens), P07949 [S891A]. The experiment can be described thus: (§1) Selectivity interaction (Kinase panel (Z-LYTE Assay)) EUB0001632a RET. Particulars: at 10 µM.
For experiment [6], the system named is Proto-oncogene tyrosine-protein kinase receptor Ret (Homo sapiens), P07949 [Y791F]. The experiment is described as §1. Particulars: at 10 µM.
The subject of experiment [7] is Proto-oncogene tyrosine-protein kinase receptor Ret (Homo sapiens), P07949 [V804L]. The experiment is described as §1. Particulars: at 10 µM.
Experiment [8] has as its target Proto-oncogene tyrosine-protein kinase receptor Ret (Homo sapiens, UniProt P07949). Described as §1. Particulars: at 10 µM.
Experiment [9] has as its target T1, Bone morphogenetic protein receptor type-2 (Homo sapiens) (UniProt Q13873).
T1 sequence (whole entry): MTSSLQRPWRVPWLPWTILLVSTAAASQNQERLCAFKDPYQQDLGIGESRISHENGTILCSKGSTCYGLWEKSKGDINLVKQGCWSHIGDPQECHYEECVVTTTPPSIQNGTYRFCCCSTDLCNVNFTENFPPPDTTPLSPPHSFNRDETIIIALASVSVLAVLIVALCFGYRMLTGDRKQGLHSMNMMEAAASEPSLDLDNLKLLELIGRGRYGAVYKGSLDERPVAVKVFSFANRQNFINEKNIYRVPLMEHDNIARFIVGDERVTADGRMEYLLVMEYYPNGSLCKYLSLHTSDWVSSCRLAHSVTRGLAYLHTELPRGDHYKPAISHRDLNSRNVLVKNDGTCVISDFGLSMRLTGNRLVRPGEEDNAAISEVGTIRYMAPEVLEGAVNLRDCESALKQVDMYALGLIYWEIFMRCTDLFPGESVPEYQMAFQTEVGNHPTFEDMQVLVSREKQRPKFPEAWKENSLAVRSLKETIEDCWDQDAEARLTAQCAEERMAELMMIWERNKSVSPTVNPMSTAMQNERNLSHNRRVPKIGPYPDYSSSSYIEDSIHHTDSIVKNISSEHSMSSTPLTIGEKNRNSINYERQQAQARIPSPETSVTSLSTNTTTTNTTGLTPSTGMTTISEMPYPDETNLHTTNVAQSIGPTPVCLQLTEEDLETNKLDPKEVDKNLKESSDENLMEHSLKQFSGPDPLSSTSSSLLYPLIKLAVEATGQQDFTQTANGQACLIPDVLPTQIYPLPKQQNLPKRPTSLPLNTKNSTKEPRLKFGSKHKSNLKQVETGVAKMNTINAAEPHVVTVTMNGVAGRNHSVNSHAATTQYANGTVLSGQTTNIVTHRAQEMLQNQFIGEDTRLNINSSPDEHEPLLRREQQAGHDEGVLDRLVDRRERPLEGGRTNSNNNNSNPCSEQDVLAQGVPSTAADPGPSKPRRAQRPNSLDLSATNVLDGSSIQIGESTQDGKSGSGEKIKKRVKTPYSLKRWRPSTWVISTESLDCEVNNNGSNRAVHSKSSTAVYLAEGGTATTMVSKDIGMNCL
The experiment can be described thus: Selectivity interaction (LanthaScreen Eu Kinase Binding Assay) EUB0001632a BMPR2. As to conditions: at 10 µM. A general note: TR-FRET usually uses a lanthanide donor and a delayed reading to cut background.

Experiment [10] deals with T2, Mitogen-activated protein kinase kinase kinase 2 (Homo sapiens) (UniProt Q9Y2U5).
T2 sequence (whole entry): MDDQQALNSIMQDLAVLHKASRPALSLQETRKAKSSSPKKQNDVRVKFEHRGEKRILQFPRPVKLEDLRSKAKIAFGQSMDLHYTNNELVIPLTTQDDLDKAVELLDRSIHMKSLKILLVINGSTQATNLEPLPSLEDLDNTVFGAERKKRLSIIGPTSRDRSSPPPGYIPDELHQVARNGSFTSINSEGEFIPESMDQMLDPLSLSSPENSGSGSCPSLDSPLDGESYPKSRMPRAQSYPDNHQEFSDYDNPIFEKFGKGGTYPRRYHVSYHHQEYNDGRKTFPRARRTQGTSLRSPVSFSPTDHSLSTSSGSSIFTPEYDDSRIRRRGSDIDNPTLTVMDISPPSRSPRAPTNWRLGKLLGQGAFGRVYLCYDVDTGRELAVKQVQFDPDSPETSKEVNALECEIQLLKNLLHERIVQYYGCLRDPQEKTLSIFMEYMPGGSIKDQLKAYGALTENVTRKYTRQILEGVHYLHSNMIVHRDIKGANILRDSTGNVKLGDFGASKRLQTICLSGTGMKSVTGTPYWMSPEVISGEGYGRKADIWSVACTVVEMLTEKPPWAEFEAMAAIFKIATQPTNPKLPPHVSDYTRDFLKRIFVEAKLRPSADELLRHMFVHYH
The experiment can be described thus: Selectivity interaction (ActivX KiNativ screen (kinase selectivity in THP-1 cell lysates)) EUB0000639a MAP3K2. It is filed as subcellular. As to conditions: lysate, at 1 µM.

Experiment [11] concerns the target 1-phosphatidylinositol 3-phosphate 5-kinase (Homo sapiens) (UniProt Q9Y2I7). The experiment can be described thus: Selectivity interaction (KinomeScan (DiscoverX)) EUB0000229b PIKFYVE. Particulars: at 10 µM.
Experiment [12] addresses Tyrosine-protein kinase SYK (Homo sapiens, UniProt P43405). Nature of the experiment: Selectivity interaction (KinomeScan (DiscoverX)) EUB0001619a SYK. Particulars: at 1 µM.
For experiment [13], the target named is Serine/threonine-protein kinase/endoribonuclease IRE1 (Homo sapiens) (UniProt O75460). The experiment can be described thus: Selectivity interaction (KinomeScan (DiscoverX)) EUB0000618a ERN1. Particulars: at 10 µM.
Chain of Serine/threonine-protein kinase/endoribonuclease IRE1 (Homo sapiens) (O75460 19-977 limits assumed): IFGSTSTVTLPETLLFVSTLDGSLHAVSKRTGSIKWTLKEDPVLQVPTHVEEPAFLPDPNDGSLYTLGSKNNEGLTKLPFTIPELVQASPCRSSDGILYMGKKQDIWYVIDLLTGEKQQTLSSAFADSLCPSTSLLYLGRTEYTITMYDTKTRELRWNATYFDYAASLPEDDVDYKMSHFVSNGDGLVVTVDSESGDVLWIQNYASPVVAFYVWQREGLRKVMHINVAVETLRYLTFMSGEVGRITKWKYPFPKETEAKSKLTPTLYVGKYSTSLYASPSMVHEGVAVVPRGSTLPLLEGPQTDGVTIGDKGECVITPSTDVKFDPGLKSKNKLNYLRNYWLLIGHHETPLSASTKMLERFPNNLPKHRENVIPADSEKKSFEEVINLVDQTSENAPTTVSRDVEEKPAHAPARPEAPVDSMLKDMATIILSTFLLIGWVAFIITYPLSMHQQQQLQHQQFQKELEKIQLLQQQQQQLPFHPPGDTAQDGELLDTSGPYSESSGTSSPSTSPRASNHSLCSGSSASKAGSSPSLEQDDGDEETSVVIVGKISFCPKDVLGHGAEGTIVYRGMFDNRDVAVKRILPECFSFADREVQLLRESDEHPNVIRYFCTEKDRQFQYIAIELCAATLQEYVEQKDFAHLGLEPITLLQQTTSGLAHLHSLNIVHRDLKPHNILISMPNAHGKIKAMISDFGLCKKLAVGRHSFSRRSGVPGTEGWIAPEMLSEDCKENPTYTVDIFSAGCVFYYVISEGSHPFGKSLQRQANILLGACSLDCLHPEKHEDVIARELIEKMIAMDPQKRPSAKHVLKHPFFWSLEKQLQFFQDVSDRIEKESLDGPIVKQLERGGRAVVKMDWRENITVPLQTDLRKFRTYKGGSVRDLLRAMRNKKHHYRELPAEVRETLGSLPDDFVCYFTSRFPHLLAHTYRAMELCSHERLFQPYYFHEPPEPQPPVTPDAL

Chain of Tyrosine-protein kinase Blk (Homo sapiens) (P51451 2-505 limits assumed): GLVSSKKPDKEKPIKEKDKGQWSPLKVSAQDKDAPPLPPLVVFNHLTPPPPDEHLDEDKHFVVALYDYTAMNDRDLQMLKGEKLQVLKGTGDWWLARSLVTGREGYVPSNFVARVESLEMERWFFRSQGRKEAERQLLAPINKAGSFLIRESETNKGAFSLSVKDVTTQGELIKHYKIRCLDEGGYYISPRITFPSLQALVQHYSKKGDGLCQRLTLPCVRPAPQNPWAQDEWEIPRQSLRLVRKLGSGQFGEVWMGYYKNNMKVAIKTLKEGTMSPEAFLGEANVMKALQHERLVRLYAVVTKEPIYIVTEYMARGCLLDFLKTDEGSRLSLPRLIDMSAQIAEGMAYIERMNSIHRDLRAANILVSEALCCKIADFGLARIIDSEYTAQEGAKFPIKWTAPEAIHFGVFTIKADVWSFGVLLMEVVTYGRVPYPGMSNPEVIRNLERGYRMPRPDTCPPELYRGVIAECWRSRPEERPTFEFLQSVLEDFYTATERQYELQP
Chain of Proto-oncogene tyrosine-protein kinase receptor Ret (Homo sapiens), P07949 [S891A] (P07949 whole entry S891A): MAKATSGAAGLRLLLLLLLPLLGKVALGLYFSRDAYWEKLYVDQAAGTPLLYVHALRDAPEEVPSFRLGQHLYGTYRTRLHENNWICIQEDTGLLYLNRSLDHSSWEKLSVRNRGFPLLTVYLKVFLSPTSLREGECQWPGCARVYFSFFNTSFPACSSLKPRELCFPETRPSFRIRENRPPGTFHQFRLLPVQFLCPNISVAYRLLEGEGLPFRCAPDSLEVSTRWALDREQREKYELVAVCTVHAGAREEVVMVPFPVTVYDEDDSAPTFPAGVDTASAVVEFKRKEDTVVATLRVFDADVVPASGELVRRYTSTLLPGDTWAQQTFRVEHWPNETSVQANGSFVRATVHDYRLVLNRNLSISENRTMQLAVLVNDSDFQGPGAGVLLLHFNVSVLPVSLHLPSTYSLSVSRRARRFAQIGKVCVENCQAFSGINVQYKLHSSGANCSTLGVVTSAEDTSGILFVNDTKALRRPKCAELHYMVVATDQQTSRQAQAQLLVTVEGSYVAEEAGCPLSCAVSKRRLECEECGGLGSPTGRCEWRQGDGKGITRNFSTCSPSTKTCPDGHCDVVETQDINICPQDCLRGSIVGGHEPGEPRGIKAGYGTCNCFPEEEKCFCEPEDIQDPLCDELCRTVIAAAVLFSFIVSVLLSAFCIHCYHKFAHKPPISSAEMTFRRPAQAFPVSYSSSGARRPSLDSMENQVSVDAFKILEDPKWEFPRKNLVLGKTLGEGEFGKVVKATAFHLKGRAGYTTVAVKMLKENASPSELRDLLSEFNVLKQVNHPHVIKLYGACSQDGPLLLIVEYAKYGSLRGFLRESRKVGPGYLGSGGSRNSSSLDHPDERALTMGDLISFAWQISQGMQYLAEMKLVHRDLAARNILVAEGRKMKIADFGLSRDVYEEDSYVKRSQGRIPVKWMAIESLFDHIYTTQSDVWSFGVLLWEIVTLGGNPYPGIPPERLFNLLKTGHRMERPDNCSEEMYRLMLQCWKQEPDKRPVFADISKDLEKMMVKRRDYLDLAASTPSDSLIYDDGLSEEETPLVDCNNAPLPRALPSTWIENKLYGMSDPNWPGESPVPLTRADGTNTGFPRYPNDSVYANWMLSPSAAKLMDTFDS
Chain of Cyclin-dependent kinase 16 (Homo sapiens) (Q00536 whole entry): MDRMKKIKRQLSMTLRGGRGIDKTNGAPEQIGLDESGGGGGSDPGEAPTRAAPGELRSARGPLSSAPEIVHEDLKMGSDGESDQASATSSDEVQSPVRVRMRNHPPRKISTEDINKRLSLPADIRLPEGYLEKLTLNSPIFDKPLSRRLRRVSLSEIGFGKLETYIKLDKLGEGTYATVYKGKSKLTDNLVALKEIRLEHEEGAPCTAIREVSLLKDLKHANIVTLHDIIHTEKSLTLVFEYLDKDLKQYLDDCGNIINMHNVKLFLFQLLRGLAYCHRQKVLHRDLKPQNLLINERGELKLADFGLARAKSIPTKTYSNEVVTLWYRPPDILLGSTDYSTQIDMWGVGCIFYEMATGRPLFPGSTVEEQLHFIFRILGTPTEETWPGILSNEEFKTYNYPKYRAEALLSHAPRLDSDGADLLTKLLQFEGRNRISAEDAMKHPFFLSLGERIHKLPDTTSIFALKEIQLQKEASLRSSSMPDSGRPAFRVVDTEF
Chain of Proto-oncogene tyrosine-protein kinase receptor Ret (P07949 whole entry): as the sequence (P07949 whole entry S891A) above, with A891S counted along it
Chain of Tyrosine-protein kinase HCK (Homo sapiens) (P08631 2-526 limits assumed): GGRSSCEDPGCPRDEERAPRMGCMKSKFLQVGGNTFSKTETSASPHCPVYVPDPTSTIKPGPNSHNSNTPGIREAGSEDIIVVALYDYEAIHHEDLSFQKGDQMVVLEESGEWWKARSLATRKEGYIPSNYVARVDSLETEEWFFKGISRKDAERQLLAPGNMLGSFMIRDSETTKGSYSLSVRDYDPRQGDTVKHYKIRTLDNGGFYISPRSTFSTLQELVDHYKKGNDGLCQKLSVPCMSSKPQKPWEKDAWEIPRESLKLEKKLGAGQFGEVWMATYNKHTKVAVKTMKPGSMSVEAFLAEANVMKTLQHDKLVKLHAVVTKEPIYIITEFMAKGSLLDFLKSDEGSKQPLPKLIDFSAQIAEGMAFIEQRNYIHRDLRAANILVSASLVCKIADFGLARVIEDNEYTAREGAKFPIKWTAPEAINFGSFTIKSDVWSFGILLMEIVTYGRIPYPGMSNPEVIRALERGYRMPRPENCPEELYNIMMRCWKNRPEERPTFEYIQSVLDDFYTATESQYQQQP

In experiment [1], `Nc1cnc(N2CCc3cc(S(=O)(=O)Nc4c(F)cc(Cl)cc4F)cc(N4CCCC4=O)c32)nc1` [TP-020n] gave a % of control of 98%. `COc1cc(Nc2nc(C)cc(-c3cnn4nc(OC)ccc34)n2)cc(C(F)(F)F)c1` displayed a % of control in experiment [2] of 86%. Regarding `Cc1cnc(Nc2ccc(F)cc2Cl)nc1-c1c[nH]c(C(=O)N[C@H](CO)c2cccc(Cl)c2)c1`, the % of inhibition in [3] was found to be 3%.

For `C=CC(=O)Nc1cc(-n2c(=O)ccc3cnc4ccc(-c5ccc(NS(C)(=O)=O)cc5)cc4c32)ccc1C`, the % of control in [4] (at 1 µM) worked out at 40%; in experiment [4] (at 10 µM), 4.8%. Consider `Cn1cc(-n2cnc3c(NCc4nc5cc(Cl)c(Cl)cc5[nH]4)nc(N4CCOCC4)nc32)cn1`, for which the % of control in [5] is 2.48%; in experiment [6], 6.92%; in experiment [7], 6.91%; in [8], 12%. For the same compound, in experiment [9], the % of inhibition is -6.55%. With `CC[C@@H]1[C@H](F)C(=O)N[C@@H]1COc1nccc2cc(C(N)=O)c(OC)cc12` [ZIMLOVISERTIB], in [10], the % of inhibition is -7.6%. For the compound `COc1cc(N(C)c2ccnc3ccc(C(F)(F)F)cc23)cc(OC)c1OC`, in experiment [11], the % binding is 46%. On to `N#Cc1cccc(-c2c[nH]c3ncnc(N4CCOCC4)c23)c1`, for which, in experiment [12], the % of control worked out at 100%. In experiment [13], `O[C@H]1CC[C@H](Nc2ncc3nc(Nc4c(F)cc(F)cc4F)n([C@H]4CCOC4)c3n2)CC1` gave a % of control of 46%.
